Results on 12 molecules are retold here after PMC6100582 (Molecules : A Journal of Synthetic Chemistry and Natural …, 2018).

Each structure is given as a SMILES string. Converted amounts (≈) assume the structure as drawn. Like-named read-outs stand apart in the source and are kept apart here.

Data set [1] has as its system Mycobacterium marinum CAMP 5644. As to the kind of experiment: Antimycobacterial susceptibility assay (MIC determination). The class given is cell-based. As to conditions: Mycobacterium marinum, CAMP5644, 504 h. How it is done:
The broth dilution micro-method in Middlebrook 7H9 medium (Difco, Lawrence, KS, USA) supplemented with ADC Enrichment (Becton, Dickinson and Comp.) was used to determine MIC as previously described. […] Bacterial inocula were prepared by transferring colonies from culture to sterile water. The cell density was adjusted to 0.5 McFarland units using a densitometer (Densi-La-Meter, LIAP, Riga, Latvia). The final inoculum was made by 1:1000 dilution of the suspension with sterile water. Drug-free controls, sterility controls and controls consisted of medium and DMSO (Sigma-Aldrich, St. Louis, MO, USA) alone were included. […] Ciprofloxacin (CIP), rifampicin (RIF) and isoniazid (INH) (Sigma-Aldrich, St. Louis, MO, USA) were used as the standards.

Data set [2] deals with Mycobacterium tuberculosis H37Ra. The data set is described as above. Format: cell-based. As to conditions: 168 h, 7 days, 37 °C, alamarBlue. As to the method: At log phase growth, a culture sample (10 mL) was centrifuged at 15,000 rpm/20 min using a bench-top centrifuge (MPW-65R, MPW Med Instruments, Poland). Following removal of the supernatant, the pellet was washed in fresh Middlebrook 7H9GC broth and re-suspended in fresh, ODAC-supplemented MB (10 mL). The turbidity was adjusted to match McFarland standard No. 1 (3 × 10^8 CFU) with MB broth. A further 1:20 dilution of the culture was then performed in MB broth. The antimicrobial susceptibility of M. tuberculosis was investigated in a 96-well plate format. In these experiments, sterile deionised water (300 µl) was added to all outer-perimeter wells of the plates to minimize evaporation of the medium in the test wells during incubation. Each evaluated compound (100 µL) was incubated with M. tuberculosis (100 µl). Dilutions of each compound were prepared in duplicate. For all synthesized compounds, final concentrations ranged from 1000 μg/mL to 8 μg/mL. All compounds were dissolved in DMSO, and subsequent dilutions were made in supplemented MB. […] Following incubation, 10% of alamarBlue (Difco, Lawrence, KS, USA) was mixed into each well, and readings at 570 nm and 600 nm were taken, initially for background subtraction and subsequently after 24 h reincubation. […] For non-interfering compounds, a blue colour in the well was interpreted as the absence of growth, and a pink colour was scored as growth.

Data set [3] deals with HL-60 (acute myeloid leukemia). The data set can be described thus: Antiproliferative screening (cytostatic activity). Format: cell-based. As to conditions: Homo sapiens, HL-60, 72 h, read-out: IC50 HL-60. As to the method:
(§1) Cytostatic activity was evaluated in vitro on nine different types of human tumor cell lines: Capan-1, Hap1, HCT-116, and NCI-H460, as well as hematological tumors such as DND-41, HL-60, K-562, MM.1S and Z-138 as described previously. All human tumor cell lines were acquired from the American Type Culture Collection (ATCC, Manassas, VA, USA), except for the DND-41 cell line which was purchased from the Deutsche Sammlung von Mikroorganismen und Zellkulturen (DSMZ Leibniz-Institut, Braunschweig, Germany) and the Hap1 cell line which was purchased from Horizon Discovery (Waterbeach, UK). Capan-1, Hap1, HL-60, K-562, Z-138, MM.1S and DND-41 were cultured in Iscove′s Modified Dulbecco′s Medium (IMDM, Gibco Life Technologies, Gaithersburg, MD, USA), HCT-116 were grown in McCoy′s 5A Medium (Gibco Life Technologies) and NCI-H460 were cultured in RPMI (Gibco Life Technologies). All media were supplemented with 10% FBS (HyClone, GE Healthcare Life Sciences, USA). Adherent cell lines HCT-116, Hap1, NCI-H460, and Capan-1 cells were seeded at a density between 400 and 1250 cells per well, in 384-well, black-walled, clear-bottomed tissue culture plates (Greiner Bio-One, Kremsmünster, Germany). After overnight incubation, cells were treated with test compounds at four different concentrations ranging from 100 to 0.8 µM. Suspension cell lines HL-60, K-562, Z-138, MM.1S, and DND-41 were seeded at densities ranging from 3000 to 10,000 cells per well in 384-well, black-walled, clear-bottomed tissue culture plates containing test compounds at the same four concentrations. The plates were incubated and monitored at 37 °C for 72 h in an IncuCyte (Essen BioScience Inc., Ann Arbor, MI, USA) for real-time imaging. Images were taken every 3 h, with one field image per well under 10× magnification. All compounds were tested with duplicate data points and averaged. […]

Data set [4] deals with Hap1 (chronic myeloid leukemia). As to the kind of experiment: Antiproliferative screening (cytostatic activity). Format: cell-based. The note with it: Homo sapiens, HAP1, 72 h, read-out: IC50 Hap1. As to the method:
as §1

Data set [5] deals with DND-41 (acute lymphoblastic leukemia). As to the kind of experiment: Antiproliferative screening (cytostatic activity). The class given is cell-based, human. As to conditions: Homo sapiens, DND41, 72 h, 72 h, read-out: IC50 DND-41. As to the method: as §1
In data set [6] the test system is Capan-1 (pancreatic adenocarcinoma). As to the kind of experiment: Antiproliferative screening (cytostatic activity). The note with it: Homo sapiens, CAPAN-1, 72 h, read-out: IC50 Capan-1. The class given is cell-based. How it is done: (§2) All human tumor cell lines were acquired from the American Type Culture Collection (ATCC, Manassas, VA, USA), except for the DND-41 cell line which was purchased from the Deutsche Sammlung von Mikroorganismen und Zellkulturen (DSMZ Leibniz-Institut, Braunschweig, Germany) and the Hap1 cell line which was purchased from Horizon Discovery (Waterbeach, UK). […] All media were supplemented with 10% FBS (HyClone, GE Healthcare Life Sciences, USA). […] After overnight incubation, cells were treated with test compounds at four different concentrations ranging from 100 to 0.8 µM. […] Images were taken every 3 h, with one field image per well under 10× magnification. All compounds were tested with duplicate data points and averaged.

In data set [7] the test system is Z-138 (non-Hodgkin lymphoma). The data set can be described thus: Antiproliferative screening (cytostatic activity). The note with it: Homo sapiens, Z-138, 72 h, read-out: IC50 Z-138. Format: cell-based. How it is done: as §2
The subject of data set [8] is K-562 (chronic myeloid leukemia). The data set can be described thus: Antiproliferative screening (cytostatic activity). Format: cell-based. As to conditions: Homo sapiens, K562, 72 h, read-out: IC50 K-562. How it is done: as §2
Data set [9] relates to HCT-116 (colorectal carcinoma). As to the kind of experiment: Antiproliferative screening (cytostatic activity). The class given is cell-based. The note with it: Homo sapiens, HCT-116, 72 h, read-out: IC50 HCT-116. How it is done:
as §2

For data set [10], the system named is NCI-H460 (lung carcinoma). As to the kind of experiment: Antiproliferative screening (cytostatic activity). The class given is cell-based. The note with it: Homo sapiens, NCI-H460, 72 h, read-out: IC50 NCI-H460. As to the method:
as §2

In another data set the test system is MM.1S (multiple myeloma). As to the kind of experiment: Antiproliferative screening (cytostatic activity). The class given is cell-based. As to conditions: Homo sapiens, MM1.S, 72 h, read-out: IC50 MM.1S. As to the method: as §2
Setting [11] is: DXT and STS values in nM (footnote).

`O=C(O)c1cn(C2CC2)c2cc(N3CCNCC3)c(F)cc2c1=O` [CIP, ciprofloxacin, reference compound]: the MIC – broadly, the smallest concentration in the dilution series that meets the test's criterion for growth inhibition – turned out to be 0.3 mg/L (≈ 0.905 µM) in data set [1] and 16 mg/L (≈ 48.3 µM) in data set [2].

For the molecule `COc1cc(NC(C)CCCNC(=O)CCC(=O)Nc2cccc(F)c2)c2ncccc2c1` (centres unmarked) [Compound 5a, N-(3-Fluorophenyl)-N′-{4-[(6-methoxyquinolin-8-yl)amino]pentyl}butanediamide], the melting point (commonly the temperature, or range, at which the solid turns liquid) fell in the range of 140 to 142 °C.

Molecule `COc1cc(NC(C)CCCNC(=O)CCC(=O)Nc2ccc(F)cc2)c2ncccc2c1` (centres unmarked) [Compound 5b, N-(4-Fluorophenyl)-N′-{4-[(6-methoxyquinolin-8-yl)amino]pentyl}butanediamide] displayed a melting point of 118 to 120 °C.

As for `COc1cc(NC(C)CCCNC(=O)CCC(=O)Nc2cccc(Cl)c2)c2ncccc2c1` (centres unmarked) [Compound 5c, N-(3-Chlorophenyl)-N′-{4-[(6-methoxyquinolin-8-yl)amino]pentyl}butanediamide], the melting point was 156 to 158 °C.

On to `COc1cc(NC(C)CCCNC(=O)CCC(=O)Nc2ccc(Cl)cc2)c2ncccc2c1` (centres unmarked) [Compound 5d, N-(4-Chlorophenyl)-N′-{4-[(6-methoxyquinolin-8-yl)amino]pentyl}butanediamide], for which the melting point lay within 152 to 153 °C.

The molecule `COc1cc(NC(C)CCCNC(=O)CCC(=O)Nc2cccc(C(F)(F)F)c2)c2ncccc2c1` (centres unmarked) [Compound 5e, N′-{4-[(6-Methoxyquinolin-8-yl)amino]pentyl}-N-[3-(trifluoromethyl)phenyl]butanediamide] came in with a melting point of 146 to 149 °C.

`COc1cc(NC(C)CCCNC(=O)CCC(=O)Nc2ccc(C(F)(F)F)cc2)c2ncccc2c1` (centres unmarked) [Compound 5f, N′-{4-[(6-Methoxyquinolin-8-yl)amino]pentyl}-N-[4-(trifluoromethyl)phenyl]butanediamide] gave a melting point of 163 to 165 °C.

As to `CC(=O)O[C@@]12CO[C@@H]1C[C@H](O)[C@@]1(C)C(=O)[C@H](O)C3=C(C)[C@@H](OC(=O)[C@H](O)[C@@H](NC(=O)OC(C)(C)C)c4ccccc4)C[C@@](O)([C@@H](OC(=O)c4ccccc4)[C@H]21)C3(C)C` [DXT, docetaxel, reference compound], the concentration for half-maximal inhibition (IC50) (usually the concentration that gives 50% inhibition) in data set [3] (setting [11]) amounted to 1.24 nM; in data set [4] (setting [11]), 1.17 nM; in [5] (setting [11]) it was 0.94 nM; in data set [6] (setting [11]), 0.75 nM; in data set [7] (setting [11]), 5.42 nM; in data set [8] (setting [11]), 1.22 nM. Further, the half-inhibitory concentration (IC50) in data set [9] (setting [11]) came out at 7.66 nM; in [10] (setting [11]), 1.3 nM; in the data set on MM.1S (multiple myeloma) (setting [11]) it was 3.38 nM.

In the case of `COc1cc([C@@H]2c3cc4c(cc3[C@@H](O[C@@H]3O[C@@H]5CO[C@@H](C)O[C@H]5[C@H](O)[C@H]3O)[C@H]3COC(=O)[C@H]23)OCO4)cc(OC)c1O` [EPEG, etoposide, reference compound], the IC50 in data set [3] (IncuCyte imaging) came to 30 nM; in [4] (IncuCyte imaging), 40 nM; in data set [5] (IncuCyte imaging), 30 nM; in data set [6] (IncuCyte imaging), 150 nM; in [7] (IncuCyte imaging), 20 nM; in data set [8] (IncuCyte imaging), 10 nM. The concentration for half-maximal inhibition (IC50) in data set [9] (IncuCyte imaging) was 1350 nM; in data set [10] (IncuCyte imaging), 90 nM; in the data set on MM.1S (multiple myeloma) (IncuCyte imaging) it was 970 nM.

On to `NNC(=O)c1ccncc1` [INH, isoniazid, reference compound], for which the figures for the minimum inhibitory concentration (MIC) in data set [1] and in [2] were 64 mg/L (≈ 467 µM) and 5 mg/L (≈ 36.5 µM), respectively.

In the case of `CO[C@H]1/C=C/O[C@@]2(C)Oc3c(C)c(O)c4c(O)c(c(/C=N/N5CCN(C)CC5)c(O)c4c3C2=O)NC(=O)/C(C)=C\C=C\[C@H](C)[C@H](O)[C@@H](C)[C@@H](O)[C@@H](C)[C@H](OC(C)=O)[C@@H]1C` [RIF, rifampicin, reference compound], the lowest concentration to inhibit growth in [1] (MIC) was 2.2 mg/L (≈ 2.67 µM).

Regarding `CN[C@@H]1C[C@H]2O[C@@](C)([C@@H]1OC)n1c3ccccc3c3c4c(c5c6ccccc6n2c5c31)C(=O)NC4` [STS, staurosporine, reference compound], the results for the IC50 in [3] (setting [11]), in [4] (setting [11]) and in data set [5] (setting [11]) were 13.1 nM, 3.56 nM and 6.96 nM, respectively.
